Key:
corn [1] = assay: Test C preemergence; format: in vivo, Zea mays; conditions: Zea mays, pre-emergence
Summary of the method: (§1)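 Injury was assessed visually against controls 13 to 15 days after application, with 0 meaning no effect and 100 full control; missing entries are shown as a dash. Preemergence sprays hit seeded loam–sand soil, postemergence sprays hit 1- to 4-leaf plants.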

Italian ryegrass = assay: Test C postemergence; format: in vivo, Lolium multiflorum; conditions: Lolium multiflorum, post-emergence
Summary of the method: as §1

waterhemp = assay: Test C postemergence; format: in vivo, Amaranthus rudis; conditions: Amaranthus tuberculatus, post-emergence
Summary of the method: as §1

barnyardgrass [2] = assay: Test B flooded paddy test; format: in vivo, Echinochloa crus-galli; conditions: Echinochloa crus-galli; Flood, 250 g ai/ha; 0 to 100 scale where 0 is no effect and 100 is complete control; read-out: Plant response rating, Barnyardgrass
Summary of the method: (§2)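 Scores from 0 (no effect) to 100 (complete control) are visual comparisons with controls, taken 13 to 15 days after compound was applied into floodwater 3 cm deep around 2-leaf plants.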

johnsongrass = assay: Test C postemergence; format: in vivo, Sorghum halepense; conditions: Sorghum halepense, post-emergence
Summary of the method: as §1

sedge, umbrella = assay: Test B flooded paddy test; format: in vivo, Cyperus difformis; conditions: Cyperus difformis, Flood, 250 g ai/ha; 0 to 100 scale where 0 is no effect and 100 is complete control; read-out: Plant response rating, Sedge, Umbrella
Summary of the method: as §2

yellow nutsedge = assay: Test C postemergence; format: in vivo, Cyperus esculentus; conditions: Cyperus, post-emergence
Summary of the method: as §1

morningglory = assay: Test A preemergence; format: in vivo, Ipomoea spp.
Summary of the method: (§3)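 Compounds in non-phytotoxic solvent with surfactant applied as soil spray preemergence, or postemergence to plants 2-10 cm at one- to two-leaf stage, in loam/sand. After approximately 10 days in greenhouse, injury rated visually versus untreated controls, 0 (no effect) to 100 (complete control).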

velvetleaf = assay: Test C postemergence; format: in vivo, Abutilon theophrasti; conditions: Abutilon theophrasti, post-emergence
Summary of the method: as §1

corn [3] = assay: Test A preemergence; format: in vivo, Zea mays; conditions: Zea mays, pre-emergence, 240 h
Summary of the method: as §3

barnyardgrass [4] = assay: Test A postemergence; format: in vivo, Echinochloa crus-galli; conditions: Echinochloa crus-galli, post-emergence, 240 h
Summary of the method: as §3

wild oat = assay: Test C postemergence; format: in vivo, Avena fatua; conditions: Avena fatua, post-emergence
Summary of the method: as §1

pigweed = assay: Test C postemergence; format: in vivo, Amaranthus retroflexus; conditions: Amaranthus retroflexus, post-emergence
Summary of the method: as §1

giant foxtail = assay: Test C preemergence; format: in vivo, Setaria faberii; conditions: Setaria faberi, pre-emergence
Summary of the method: as §1

barnyardgrass [5] = assay: Test C postemergence; format: in vivo, Echinochloa crus-galli; conditions: Echinochloa crus-galli, post-emergence
Summary of the method: as §1

[6] = 125 g ai/ha, 0 to 100 scale where 0 is no effect and 100 is complete control

Q: How did the plant injury at 62 g/ha (corn [1]; 62 g ai/ha, preemergence, scale 0 (no effect) to 100 (complete control), read-out: Corn plant response rating) turn out when `N#Cc1cccc(Oc2ncc(Cl)cn2)c1-n1cc(C(F)(F)F)cn1` [Compound 58, 3-[(5-chloro-2-pyrimidinyl)oxy]-2-[4-(trifluoromethyl)-1H-pyrazol-1-yl]benzonitrile] was run?
A: 90%

Q: What about the plant injury at 125 g/ha (corn [1]; 125 g ai/ha, preemergence, scale 0 (no effect) to 100 (complete control), read-out: Corn plant response rating) of the same compound?
A: 98%

Q: And the plant injury at 250 g/ha (corn [1]; 250 g ai/ha, preemergence, scale 0 (no effect) to 100 (complete control), read-out: Corn plant response rating)?
A: 98%

Q: And the Corn plant response rating (crop injury, 0 = no effect, 100 = complete kill) at 31 g/ha (corn [1]; Preemergence, 31 g ai/ha, scale 0 to 100, 0 no effect, 100 complete control)?
A: 60%

Q: What about the pest or weed control at 125 g/ha (Italian ryegrass; 125 g ai/ha, postemergence, read-out: Plant response rating (0 to 100), Ryegrass, Italian) of the same compound?
A: 10%

Q: What about the pest or weed control at 250 g/ha (Italian ryegrass; 250 g ai/ha, postemergence, read-out: Plant response rating (0 to 100), Ryegrass, Italian) of the same compound?
A: 35%

Q: What about the pest or weed control at 31 g/ha (Italian ryegrass; Postemergence, 31 g ai/ha, scale 0 to 100 (0 no effect, 100 complete control), 13 to 15 days, read-out: Plant response rating, Ryegrass, Italian) of the same compound?
A: 5%

Q: And the pest or weed control at 62 g/ha (Italian ryegrass; Postemergence, 62 g ai/ha, scale 0 to 100 (0 no effect, 100 complete control), read-out: Plant response rating, Ryegrass, Italian)?
A: 5%

Q: What about the pest or weed control at 125 g/ha (waterhemp; 125 g ai/ha, postemergence, read-out: Plant response rating (0 to 100), Waterhemp) of the same compound?
A: 90%

Q: And the pest or weed control at 250 g/ha (waterhemp; 250 g ai/ha, postemergence, read-out: Plant response rating (0 to 100), Waterhemp)?
A: 100%

Q: And the pest or weed control at 31 g/ha (waterhemp; Postemergence, 31 g ai/ha, scale 0 to 100 (0 no effect, 100 complete control), 13 to 15 days, read-out: Plant response rating, Waterhemp)?
A: 85%

Q: And the pest or weed control at 62 g/ha (waterhemp; Postemergence, 62 g ai/ha, scale 0 to 100 (0 no effect, 100 complete control), read-out: Plant response rating, Waterhemp)?
A: 90%

Q: And the pest or weed control at 250 g/ha (barnyardgrass [2])?
A: 80%

Q: What about the pest or weed control at 125 g/ha (johnsongrass; 125 g ai/ha, postemergence, read-out: Plant response rating (0 to 100), Johnsongrass) of the same compound?
A: 35%

Q: And the pest or weed control at 250 g/ha (johnsongrass; 250 g ai/ha, postemergence, read-out: Plant response rating (0 to 100), Johnsongrass)?
A: 85%

Q: And the pest or weed control at 31 g/ha (johnsongrass; Postemergence, 31 g ai/ha, scale 0 to 100 (0 no effect, 100 complete control), 13 to 15 days, read-out: Plant response rating, Johnsongrass)?
A: 15%

Q: And the pest or weed control at 62 g/ha (johnsongrass; Postemergence, 62 g ai/ha, scale 0 to 100 (0 no effect, 100 complete control), read-out: Plant response rating, Johnsongrass)?
A: 15%

Q: What about the pest or weed control at 250 g/ha (sedge, umbrella) of the same compound?
A: 90%

Q: And the pest or weed control at 125 g/ha (yellow nutsedge; 125 g ai/ha, postemergence, read-out: Plant response rating (0 to 100), Nutsedge, Yellow)?
A: 15%

Q: And the pest or weed control at 250 g/ha (yellow nutsedge; 250 g ai/ha, postemergence, read-out: Plant response rating (0 to 100), Nutsedge, Yellow)?
A: 15%

Q: And the pest or weed control at 31 g/ha (yellow nutsedge; Postemergence, 31 g ai/ha, scale 0 to 100 (0 no effect, 100 complete control), 13 to 15 days, read-out: Plant response rating, Nutsedge, Yellow)?
A: 5%

Q: What about the pest or weed control at 62 g/ha (yellow nutsedge; Postemergence, 62 g ai/ha, scale 0 to 100 (0 no effect, 100 complete control), read-out: Plant response rating, Nutsedge, Yellow) of the same compound?
A: 5%

Q: And the “Plant response rating, Morningglory” value (morningglory; [6])?
A: 100

Q: What about the pest or weed control at 500 g/ha (morningglory; Ipomoea, pre-emergence, 240 h, 500 g ai/ha, 0 to 100 scale, 0 no effect, 100 complete control, approx. 10 days, read-out: Morningglory plant response rating) of the same compound?
A: 100%

Q: And the pest or weed control at 125 g/ha (velvetleaf; 125 g ai/ha, postemergence, read-out: Plant response rating (0 to 100), Velvetleaf)?
A: 60%

Q: And the pest or weed control at 250 g/ha (velvetleaf; 250 g ai/ha, postemergence, read-out: Plant response rating (0 to 100), Velvetleaf)?
A: 85%

Q: What about the pest or weed control at 31 g/ha (velvetleaf; Postemergence, 31 g ai/ha, scale 0 to 100 (0 no effect, 100 complete control), 13 to 15 days, read-out: Plant response rating, Velvetleaf) of the same compound?
A: 45%

Q: What about the pest or weed control at 62 g/ha (velvetleaf; Postemergence, 62 g ai/ha, scale 0 to 100 (0 no effect, 100 complete control), read-out: Plant response rating, Velvetleaf) of the same compound?
A: 50%

Q: And the Corn plant response rating (crop injury, 0 = no effect, 100 = complete kill) at 125 g/ha (corn [3]; [6])?
A: 40%

Q: What about the plant injury at 500 g/ha (corn [3]; 500 g ai/ha, 0 to 100 scale, 0 no effect, 100 complete control, approx. 10 days, read-out: Corn plant response rating) of the same compound?
A: 70%

Q: And the pest or weed control at 125 g/ha (barnyardgrass [4]; 125 g ai/ha, 0 to 100 scale where 0 is no effect and 100 is complete control, read-out: Plant response rating, Barnyardgrass)?
A: 100%

Q: What about the pest or weed control at 500 g/ha (barnyardgrass [4]; 500 g ai/ha, 0 to 100 scale, 0 no effect, 100 complete control, read-out: Plant response rating Barnyardgrass) of the same compound?
A: 100%

Q: What about the pest or weed control at 125 g/ha (wild oat; 125 g ai/ha, postemergence, read-out: Plant response rating (0 to 100), Oat, Wild) of the same compound?
A: 45%

Q: What about the pest or weed control at 250 g/ha (wild oat; 250 g ai/ha, postemergence, read-out: Plant response rating (0 to 100), Oat, Wild) of the same compound?
A: 55%

Q: What about the pest or weed control at 31 g/ha (wild oat; Postemergence, 31 g ai/ha, scale 0 to 100 (0 no effect, 100 complete control), 13 to 15 days, read-out: Plant response rating, Oat, Wild) of the same compound?
A: 35%

Q: What about the pest or weed control at 62 g/ha (wild oat; Postemergence, 62 g ai/ha, scale 0 to 100 (0 no effect, 100 complete control), read-out: Plant response rating, Oat, Wild) of the same compound?
A: 40%

Q: And the pest or weed control at 125 g/ha (pigweed; 125 g ai/ha, postemergence, read-out: Plant response rating (0 to 100), Pigweed)?
A: 98%

Q: What about the pest or weed control at 250 g/ha (pigweed; 250 g ai/ha, postemergence, read-out: Plant response rating (0 to 100), Pigweed) of the same compound?
A: 100%

Q: And the pest or weed control at 31 g/ha (pigweed; Postemergence, 31 g ai/ha, scale 0 to 100 (0 no effect, 100 complete control), 13 to 15 days, read-out: Plant response rating, Pigweed)?
A: 90%

Q: What about the pest or weed control at 62 g/ha (pigweed; Postemergence, 62 g ai/ha, scale 0 to 100 (0 no effect, 100 complete control), read-out: Plant response rating, Pigweed) of the same compound?
A: 95%

Q: What about the pest or weed control at 62 g/ha (giant foxtail; 62 g ai/ha, preemergence, scale 0 (no effect) to 100 (complete control), read-out: Foxtail, Giant plant response rating) of the same compound?
A: 100%

Q: What about the pest or weed control at 125 g/ha (giant foxtail; 125 g ai/ha, preemergence, scale 0 (no effect) to 100 (complete control), read-out: Foxtail, Giant plant response rating) of the same compound?
A: 100%

Q: And the pest or weed control at 250 g/ha (giant foxtail; 250 g ai/ha, preemergence, scale 0 (no effect) to 100 (complete control), read-out: Foxtail, Giant plant response rating)?
A: 100%

Q: What about the pest or weed control at 31 g/ha (giant foxtail; Preemergence, 31 g ai/ha, scale 0 to 100, 0 no effect, 100 complete control, read-out: Plant response rating, Foxtail, Giant) of the same compound?
A: 100%

Q: What about the pest or weed control at 125 g/ha (barnyardgrass [5]; 125 g ai/ha, postemergence, read-out: Plant response rating (0 to 100), Barnyardgrass) of the same compound?
A: 15%

Q: What about the pest or weed control at 250 g/ha (barnyardgrass [5]; 250 g ai/ha, postemergence, read-out: Plant response rating (0 to 100), Barnyardgrass) of the same compound?
A: 75%

Q: And the pest or weed control at 31 g/ha (barnyardgrass [5]; Postemergence, 31 g ai/ha, scale 0 to 100 (0 no effect, 100 complete control), 13 to 15 days, read-out: Plant response rating, Barnyardgrass)?
A: 5%

Q: What about the pest or weed control at 62 g/ha (barnyardgrass [5]; Postemergence, 62 g ai/ha, scale 0 to 100 (0 no effect, 100 complete control), read-out: Plant response rating, Barnyardgrass) of the same compound?
A: 5%
